Reference: patent publication US20100172870A1, “METHODS, USES AND COMPOSITIONS FOR MODULATING REPLICATION OF HCV THROUGH THE FARNESOID X RECEPTOR (FXR) ACTIVATION OR INHIBITION” (priority 2006, published 2010)

Columns and labels:
[1] = test system: genotype 1b replicon (R1b); test: HCV subgenomic replicon R1b luciferase assay; assay type: cell-based, hepatitis C virus (HCV)
Description: (§1) Replicons: Three subgenomic replicons were used in this study: two replicative forms called R1a and R1b according to their genotype origin and a derivative of the R1b replicon with a mutation in the RNA-dependant RNA polymerase (Rp-del) which is thus unable to replicate and was used as a negative control in all experiments. They are bicistronic RNAs which contains the firefly luciferase (Photinus pyralis) reporter gene downstream of the HCV IRES and the sequence coding for the polyprotein NS3 to NS5B downstream of the encephalomyocarditis virus (EMCV) IRES.
RNA transfection: The replicons were transfected into Huh7 cells by electroporation.
Subconfluent monolayers of Huh7 cells were detached from the culture dish by trypsin treatment and rinsing with complete DMEM. […] 400 μL of the cell suspension was mixed by gentle pipetting with 8 μg RNA (R1a, R1b or Rp-del) and transferred into an electroporation cuvette with a gap-width of 0.4 cm (BioRad). The mixture was immediately subjected to one electric pulse at 270 V, 950 μF and maximum resistance using a Gene Pulser System (BioRad).
After electroporation the 400 μL of each cell suspension was diluted in 9 mL complete DMEM and pooled together before being seeded onto 24-well plates (1 mL per well).
Luciferase Assay: Cells were washed with PBS and scraped off the plate with 80 μL of 1× Luciferase Cell Culture Lysis Reagent (Promega). 40 μL of the lysate were transferred to a 96-well plate and mixed with 200 μL of Luciferase Assay Reagent (Promega). Luminescence expressed as relative light units (RLU) was measured immediately on a scintillation counter (Top Count NXT, Perkin Elmer) for 10 s.
(§2) The data are averages from triplicate cultures. […] The values are expressed as relative ratios of the values obtained 4 h after electroporation. Unless otherwise stated, the RLU values were determined 72 h after transfection when cells were confluent.

[2] = test system: non-structural proteins NS4a and NS5a in R1b-transfected cells; test: HCV protein expression by immunofluorescence staining and FACS analysis; assay type: cell-based, hepatitis C virus (HCV); conditions: for NS5a positive cells by FACS analysis: 3 days of treatment (untreated 22%); for mean fluorescence intensity in the positive cells: NS5a-labeling, 3 days (untreated 16)
Description: Immunofluorescence staining: Three days after electroporation, cells were plated in 8-well chamber slides at a density of 5×10^4 cells per well. 24 hours after, slides were washed in PBS and fixed in ⅔ acetone-ethanol for 5 minutes at −20° C. followed by 50 minutes block in PBS-glycin 0.2M. Primary antibodies were added to the cells at a 1:500 dilution in PBS-glycin 0.2M for 1 h at room temperature. After 3 washes in PBS, fluorescein conjugated secondary antibodies (Jackson ImmunoResearch) were added to the cells at a 1:50 dilution in PBS-glycin 0.2M for 40 minutes at room temperature. In the meantime, cells were counterstained with Evans Blue (Merck).
FACS analysis: 72 h post-electroporation, single-cell suspension was prepared for FACS analysis. Briefly 0.8.10^6 cells were fixed and permeabilised for 15 min at room temperature with Cytofix/Cytoperm (PharMingen). Cells were stained for 30 min with primary antibodies at a 1:500 dilution in Perm/Wash Buffer (PharMingen). Bound monoclonal antibody was detected by incubation for 30 min at 4° C. with secondary antibody diluted 1:100 in Perm/Wash Buffer. The stained cells were resuspended in PBS prior to analysis using a FACSCalibur 3C (BD Biosciences).

[3] = test system: genotype 1a replicon (R1a); test: HCV subgenomic replicon R1a luciferase assay; assay type: cell-based, hepatitis C virus (HCV); conditions: Huh7-Lunet cells, 72 h of treatment, CDCA 100 μM or GGS 10 μM
Description: as §1, with “IRES. […]” for “IRES.”
Subconfluent monolayers of Huh7 cells were detached from the culture dish by trypsin treatment and rinsing with complete DMEM. The cells were washed once with phosphate buffer saline (PBS), counted and resuspended at 10^7 cells per mL in Cytomix buffer (Van den Hoff, M J. Et al. 1992). […]
Luciferase Assay: Cells were washed with PBS and scraped off the plate with 80 μL of 1× Luciferase Cell Culture Lysis Reagent (Promega). […] Luminescence expressed as relative light units (RLU) was measured immediately on a scintillation counter (Top Count NXT, Perkin Elmer) for 10 s.
as §2

[4] = test system: replicon transfected cells (Huh7); test: Toxicity for Huh7 / replicon transfected cells; assay type: cell-based, human
Description: BAs, sterols and fatty acids are structurally related natural ligands of the NR1 family of nuclear receptors expressed in the liver and intestine. […] BAs were recently described as the natural ligands for FXR (Makishima M. et al. 2002; Parks D J. et al. 1999). To examine whether BAs were mediating their effects on HCV RNA replication through FXR we tested a panel of FXR ligands including the two formerly described FXR ligands that activate FXR at supraphysiological concentrations, farnesol and the synthetic retinoid TTNPB at a concentration of 10 μM each and other BAs such as CA, LCA, and UDCA, all at a concentration of 100 μM (FIG. 4B).

FXR = molecular target: T1, FXR (Homo sapiens, UniProt Q96RI1); conditions: Urizar N L. et al. 2002, cited from earlier work
T1 construct: host or cells: HepG2
T1 sequence (Q96RI1 1-486): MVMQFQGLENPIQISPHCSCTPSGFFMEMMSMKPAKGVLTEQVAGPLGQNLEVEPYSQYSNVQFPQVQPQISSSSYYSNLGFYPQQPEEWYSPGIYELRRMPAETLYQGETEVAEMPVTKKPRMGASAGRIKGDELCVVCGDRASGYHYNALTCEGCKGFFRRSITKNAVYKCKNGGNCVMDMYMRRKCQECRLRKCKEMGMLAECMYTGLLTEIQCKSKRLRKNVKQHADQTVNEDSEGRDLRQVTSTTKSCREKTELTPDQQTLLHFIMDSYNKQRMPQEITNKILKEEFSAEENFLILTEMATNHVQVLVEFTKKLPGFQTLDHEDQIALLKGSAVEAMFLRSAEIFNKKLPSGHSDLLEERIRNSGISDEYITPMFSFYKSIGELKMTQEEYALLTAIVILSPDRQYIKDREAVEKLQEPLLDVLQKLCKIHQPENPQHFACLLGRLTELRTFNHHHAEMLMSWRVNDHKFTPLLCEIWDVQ

For `CC(C)CCC(O)[C@@H](C)[C@H]1CC[C@H]2[C@@H]3CC=C4C[C@@H](O)CC[C@]4(C)[C@H]3CC[C@]12C` (some centres unmarked) [22-hydroxycholesterol], the “effect on luciferase activity at 5 μM” value ([1]; Huh7 cells, 72 h (FIG. 4B)) was “did not show any effect on replication”.

For `C[C@H](CCCC(C)(C)O)[C@H]1CC[C@H]2[C@@H]3CC=C4C[C@@H](O)CC[C@]4(C)[C@H]3CC[C@]12C` [25-hydroxycholesterol], the “effect on luciferase activity at 1 μM” value ([1]; Huh7 cells, 1 μM, 72 h (FIG. 4B)) was “did not show any effect on replication”.

With `C[C@H](CCC(=O)O)[C@H]1CC[C@H]2[C@@H]3[C@H](O)C[C@@H]4C[C@H](O)CC[C@]4(C)[C@H]3C[C@H](O)[C@]12C` [CA, cholic acid] the “effect on luciferase activity at 100 μM” value ([1]; Huh7 cells, 72 h (FIG. 4B)) was “only weak activity”.

In the case of `C[C@H](CCC(=O)O)[C@H]1CC[C@H]2[C@@H]3[C@H](O)C[C@@H]4C[C@H](O)CC[C@]4(C)[C@H]3CC[C@]12C` [CDCA, chenodeoxycholic acid], the “NS5a positive cells by FACS analysis” value [2] is reported as 27%, the “mean fluorescence intensity in the positive cells” value [2] is reported as 39 and the “response of genotype 1a replicon to FXR-modulation” value [3] is reported as “same behaviour as genotype 1b”. For the same compound, the “effect on luciferase activity at 100 μM” value ([1]; Huh7 cells, 72 h (FIG. 4B)) was “most potent activator”, the “effect on luciferase activity, dose-response” value ([1]; Huh7 cells, 10, 50 or 100 μM, 72 h) was “dose-dependent” and the “concentration reaching maximum level of luciferase activity” value ([1]; Huh7 cells, 72 h) was 100 µM. The “lowest concentration with detectable specific activity on luciferase” value ([1]; Huh7 cells, 72 h) was 10 µM and the “up-regulation of HCV RNA replication, comparison of free BAs” value ([1]; Huh7 cells, dose-response, 72 h) was “more efficiently than DCA”.

In the case of `C[C@H](CCC(=O)O)[C@H]1CC[C@H]2[C@@H]3CC[C@@H]4C[C@H](O)CC[C@]4(C)[C@H]3C[C@H](O)[C@]12C` [DCA, deoxycholic acid], the “concentration reaching maximum level of luciferase activity” value ([1]; Huh7 cells, 72 h) is reported as 100 µM, the “increase of luciferase activity” value ([1]; Huh7 cells, DCA 100 μM, 72 h of treatment, vs untreated R1b cells) is reported as 15 fold and the “time over which high levels of luciferase activities could be maintained” value ([1]; Huh7 cells, DCA 100 μM, long-term culture with passages every 3 or 4 days) is reported as “more than 2 weeks”. For the same compound, the “mortality of treated cells compared to untreated” value ([4]; Huh7 cells, 100 μM) was “No increase in the mortality”.

For `C/C=C1\C(=O)CC2C3CCC4=CC(=O)CC[C@]4(C)C3CC[C@]12C` (stereo partly drawn) [GGS, trans-4,17(20)-pregnadiene-3,16-dione], the “NS4a and NS5a expression” value ([2]; 3 days of treatment) was “almost completely abolished”, the “NS5a positive cells by FACS analysis” value [2] was 4% and the “mean fluorescence intensity in the positive cells” value [2] was “very weak fluorescence intensity”. The “response of genotype 1a replicon to FXR-modulation” value [3] was “same behaviour as genotype 1b”, the “effect of GGS alone on FXR activity” value (FXR; HepG2 cells, bile salt export pump promoter-driven luciferase construct) was “had no effect” and the “concentration range antagonizing FXR” value (FXR) was “micromolar range”. For the same compound, the inhibition at 20 µM ([1]; Hepatitis C virus, Huh-7, Huh7-Lunet cells, 20 μM, 72 h, read-out: inhibition of the replication) was ≤ 95%, the IC50 ([1]; Hepatitis C virus, Huh-7, Huh7-Lunet cells, basal replication, 72 h, read-out: inhibitory concentration causing a decrease of half the basal activity (IC50)) was ~2 µM and the “inhibition of the effect of CDCA on replication” value ([1]; Huh7-Lunet cells, CDCA 100 μM, guggulsterone 0.01 μM up to 20 μM, 72 h) was “inhibited in a dose-dependent fashion”. For the same compound, the “further decrease of luciferase activity when associated to a given concentration of IFN” value ([1]; Huh7-Lunet cells, GGS 10 μM plus IFN, 72 h) was “about 10 fold”, the “inhibition of the basal replication of HCV” value ([1]; Huh7-Lunet cells, absence of BAs stimulation, 72 h) was “could also inhibit the basal replication” and the “concentrations toxic for the replicon transfected cells” value ([4]; replicon transfected cells) was 40 µM.

For `C/C(=C\c1ccc(C(=O)O)cc1)c1ccc2c(c1)C(C)(C)CCC2(C)C` [TTNPB, (E)-[(tetrahydrotetramethylnaphthalenyl)propenyl]benzoic acid], the “effect on luciferase activity at 10 μM” value ([1]; Huh7 cells, 72 h (FIG. 4B)) was “slightly increased”.

With `CC(C)CCC[C@@H](C)[C@H]1CC[C@H]2[C@@H]3CC=C4C[C@@H](O)CC[C@]4(C)[C@H]3CC[C@]12C` [cholesterol] the “effect on luciferase activity at 10 μM” value ([1]; Huh7 cells, 72 h (FIG. 4B)) was “did not show any effect on replication”.

For `CC(C)=CCCC(C)=CCCC(C)=CCO` [farnesol], the “effect on luciferase activity at 10 μM” value ([1]; Huh7 cells, 72 h (FIG. 4B)) was “slightly increased”.

In the case of `CC(=O)[C@H]1CC[C@H]2[C@@H]3CC=C4C[C@@H](O)CC[C@]4(C)[C@H]3CC[C@]12C` [pregnenolone], the “effect on luciferase activity at 10 μM” value ([1]; Huh7 cells, 72 h (FIG. 4B)) is reported as “None of these compounds induced any upregulation of the luciferase activity”.

For `CC(=O)[C@H]1CC[C@H]2[C@@H]3CCC4=CC(=O)CC[C@]4(C)[C@H]3CC[C@]12C` [progesterone], the “effect on luciferase activity at 5 μM” value ([1]; Huh7 cells, 72 h (FIG. 4B)) was “None of these compounds induced any upregulation of the luciferase activity”.
